Laboratory results taken from patent US9546151B2, “VMAT inhibitory compounds” (Oregon Health & Science University, priority 2014, dated 2017).
Structures can show the parent of a compound that is named as a salt.

Key:
VMAT2 [1] = target: T1, VMAT2 (Homo sapiens, UniProt Q05940); test: hVMAT2 [3H]DTBZ ([3H]DHTB) binding assay; set-up: expressed in transfected cells; host or cells: HEK (human embryonic kidney) cells; conditions: cells printed in μM under a head in nM; HEK-hVMAT2 membranes
Protocol: (§1) Membrane preparation for binding, uptake and release assays using HEK-hVMAT2 cells: Human embryonic kidney cells expressing the human vesicular monoamine transporter 2 (HEK-hVMAT2) were used. HEK-hVMAT2 cells were grown until confluent. The media was removed from plates, solution A [sucrose (0.32 M) with protease inhibitors] was added to the plate, and cells were scraped from plate. Cells were homogenized with 12 strokes of a glass/glass homogenizer. The homogenate was centrifuged at 800×g for 10 min. The supernatant was removed and saved, and the pellet was resuspended, homogenized and centrifuged as above. The supernatants were combined and centrifuged at 10,000×g for 20 min. The pellet was resuspended in solution A (0.75 ml). The membranes were osmotically shocked by addition of 2.625 ml ice cold water and homogenized by 5 strokes of a glass/Teflon homogenizer. The osmolarity was reestablished with addition of Tris (338 μl, 0.25M, pH 7.4 at 4° C.), sodium potassium tartrate (338 μl, 1.0 M), and MgSO4 (4 μl, 0.9M). The homogenate was centrifuged at 20,000×g for 20 min.
Binding was terminated by filtration over Whatman GF/C filters using a Tomtec 96-well cell harvester. Filters were washed for six seconds with ice-cold saline. Scintillation fluid was added to each square and radioactivity remaining on the filters was determined using a Wallac μ- or beta-plate reader. Specific binding was defined as the difference in binding observed in the presence and absence of Ro4-1284 (10 μM, generously supplied by Hoffman LaRoche). Three or more independent competition experiments were conducted with duplicate determinations.

VMAT2 [2] = target: T1, VMAT2; test: hVMAT2 5HT Uptake; format: biochemical; set-up: expressed in transfected cells; host or cells: HEK (human embryonic kidney) cells; conditions: [^3H]5HT uptake, HEK-hVMAT2 preparation; read-out: hVMAT2 5HT Uptake IC50 (nM) ± SEM
Protocol: as §1

T1 sequence (Q05940 whole entry): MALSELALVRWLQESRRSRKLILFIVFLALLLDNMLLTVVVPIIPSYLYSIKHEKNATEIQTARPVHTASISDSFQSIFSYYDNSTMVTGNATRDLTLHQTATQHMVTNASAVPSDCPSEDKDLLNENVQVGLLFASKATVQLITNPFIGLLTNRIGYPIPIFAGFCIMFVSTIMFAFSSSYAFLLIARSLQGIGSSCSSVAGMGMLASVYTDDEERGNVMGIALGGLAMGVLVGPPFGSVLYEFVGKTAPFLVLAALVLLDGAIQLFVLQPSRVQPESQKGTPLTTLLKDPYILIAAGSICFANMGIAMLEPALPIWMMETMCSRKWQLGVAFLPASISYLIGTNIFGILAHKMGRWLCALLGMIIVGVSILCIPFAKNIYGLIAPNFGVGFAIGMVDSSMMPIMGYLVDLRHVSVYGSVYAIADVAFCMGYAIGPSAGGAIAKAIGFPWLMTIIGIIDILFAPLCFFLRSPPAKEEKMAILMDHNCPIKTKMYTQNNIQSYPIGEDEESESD

Row | SMILES | melting point [°C] | Ki (VMAT2 [1]) [µM] | IC50 (VMAT2 [2]) [nM]
1 | CCOC(=O)[C@H]1CN(CCn2c(=O)[nH]c3ccccc3c2=O)CC[C@H]1c1ccc(OC)cc1 (racemic) (as salt: HCl) [Compound 5r, (±)-syn-Ethyl 1-(2-(2,4-dioxo-1,2-dihydroquinazolin-3(4H),-yl)ethyl)-4-(4-methoxyphenyl) piperidine-3-carboxylate] | 153 to 154 |  | 
2 | CCOC(=O)[C@H]1CN(CCn2c(=O)[nH]c3ccccc3c2=O)CC[C@H]1c1ccc(CC)cc1 (racemic) (as salt: HCl) [Compound 5t, (±)-syn-Ethyl 1-(2-(2,4-dioxo-1,2-dihydroquinazolin-3(4H),-yl)ethyl)-4-(4-ethylphenyl) piperidine-3-carboxylate] | 145 to 146 |  | 
3 | CCOC(=O)[C@H]1CN(CCn2c(=O)[nH]c3ccccc3c2=O)CC[C@H]1c1ccc(C(C)C)cc1 (racemic) (as salt: HCl) [Compound 5u, (±)-syn-Ethyl 1-(2-(2,4-dioxo-1,2-dihydroquinazolin-3(4H),-yl)ethyl)-4-(4-isopropylphenyl) piperidine-3-carboxylate] | 153 to 154 |  | 
4 | CCOC(=O)[C@H]1CN(CCn2c(=O)[nH]c3ccccc3c2=O)CC[C@H]1CCc1ccccc1 (racemic) (as salt: HCl) [Compound 5v, (±)-syn-Ethyl 1-(2-(2,4-dioxo-1,2-dihydroquinazolin-3(4H)-yl)ethyl)-4-phenethylpiperidine-3-carboxylate] | 140 to 141 |  | 
5 | CCOC(=O)[C@H]1CN(CCn2c(=O)[nH]c3ccccc3c2=O)CC[C@H]1c1cccc(C)c1 (racemic) (as salt: HCl) [Compound 5y, (±)-syn-Ethyl 1-(2-(2,4-dioxo-1,2-dihydroquinazolin-3(4H),-yl)ethyl)-4-(m-tolyl)piperidine-3-carboxylate] | 148.5 to 150 |  | 
6 | CCOC(=O)[C@H]1CN(CCn2c(=O)[nH]c3ccccc3c2=O)CC[C@H]1c1ccccc1C (racemic) (as salt: HCl) [Compound 5z, (±)-syn-Ethyl 1-(2-(2,4-dioxo-1,2-dihydroquinazolin-3(4H),-yl)ethyl)-4-(o-tolyl)piperidine-3-carboxylate] | 174 to 175 |  | 
7 | CCOC(=O)[C@H]1CN(CCN2C(=O)c3ccccc3C2=O)CC[C@H]1c1ccc(F)cc1 (racemic) (as salt: HCl) [Example 144, (±)-syn-Ethyl 1-(2-(1,3-dioxoisoindolin-2-yl)ethyl)-4-(4-fluorophenyl)piperidine-3-carboxylate] | 104.5 to 105.5 |  | 
8 | CCOC(=O)[C@@H]1CN(CCn2c(=O)[nH]c3ccccc3c2=O)CC[C@@H]1c1cccc(F)c1 (racemic) [Compound 5e] | 170.6 to 171.4 | > 10 | 63 ± 10
9 | CCOC(=O)[C@@H]1CN(CCn2c(=O)[nH]c3ccccc3c2=O)CC[C@@H]1c1ccc(Cl)cc1 (racemic) [Compound 5oo, (±) syn-ethyl 4-(4-chlorophenyl)-1-(2-(2,4-dioxo-1,2-dihydroquinazolin-3(4H)-yl)ethyl)piperidine-3-carboxylate] | 194.8 to 196.1 | > 10 | 49 ± 1
10 | CCOC(=O)[C@@H]1CN(CCn2c(=O)[nH]c3ccccc3c2=O)CC[C@@H]1c1cccc(Cl)c1 (racemic) [Compound 5pp, (±) syn-ethyl 4-(3-chlorophenyl)-1-(2-(2,4-dioxo-1,2-dihydroquinazolin-3(4H)-yl)ethyl)piperidine-3-carboxylate] | 161.8 to 162.9 | > 9 | 34 ± 8
11 | CCOC(=O)[C@@H]1CN(CCn2c(=O)[nH]c3ccccc3c2=O)CC[C@@H]1c1ccc(F)c(F)c1 (racemic) [Compound 5ss, (±)-syn-Ethyl 4-(3,4-difluorophenyl)-1-(2-(2,4-dioxo-1,2-dihydroquinazolin-3(4H)-yl)ethyl)piperidine-3-carboxylate] | 196.6 to 198.4 | > 10 | 100 ± 19
12 | CCOC(=O)[C@@H]1CN(CCn2c(=O)[nH]c3ccccc3c2=O)CC[C@@H]1c1ccc([N+](=O)[O-])cc1 (racemic) [Compound 5tt, (±)-syn-Ethyl 4-(4-nitrophenyl)-1-(2-(2,4-dioxo-1,2-dihydroquinazolin-3(4H)-yl)ethyl)piperidine-3-carboxylate] | 216 to 217.4 | > 10 | 758 ± 165
13 | CCOC(=O)[C@H]1CN(CCn2c(=O)[nH]c3ccccc3c2=O)CC[C@H]1c1ccccc1F (racemic) [Compound 5x, (±)-syn-Ethyl 1-(2-(2,4-dioxo-1,2-dihydroquinazolin-3(4H)-yl)ethyl)-4-(2-fluorophenyl)piperidine-3-carboxylate] | 182.8 to 183.6 | > 10 | 28 ± 12
14 | O=c1[nH]c2ccccc2c(=O)n1CCN1CCC(c2ccc(F)cc2)CC1 [Compound 16, 3-(2-(4-(4-fluorophenyl)piperidin-1-yl)ethyl)quinazoline-2,4(1H,3H)-dione] | 263 to 264 |  | 

The remaining lines, values ahead:

Row | melting point [°C] | Ki (VMAT2 [1]) [µM] | IC50 (VMAT2 [2]) [nM] | SMILES
15 | 191.5 to 193 |  |  | COC(=O)[C@H]1CN(CCn2c(=O)[nH]c3ccccc3c2=O)CC[C@H]1c1ccc(F)cc1 (racemic) (as salt: HCl) [Compound 10a, (±)-syn-Methyl 1-(2-(2,4-dioxo-1,2-dihydroquinazolin-3(4H),-yl)ethyl)-4-(4-fluorophenyl) piperidine-3-carboxylate]
16 | 157.5 to 159 |  |  | CC(C)OC(=O)[C@H]1CN(CCn2c(=O)[nH]c3ccccc3c2=O)CC[C@H]1c1ccc(F)cc1 (racemic) (as salt: HCl) [Compound 10b, (±)-syn-Isopropyl 1-(2-(2,4-dioxo-1,2-dihydroquinazolin-3(4H),-yl)ethyl)-4-(4-fluorophenyl)piperidine-3-carboxylate]
17 | 131.1 to 133 |  |  | CCOC(=O)[C@@H]1CN(CCn2c(=O)c3ccccc3n(C)c2=O)CC[C@@H]1c1ccc(F)cc1 (racemic) [Compound 6a, (±) syn-ethyl 4-(4-fluorophenyl)-1-(2-(1-methyl-2,4-dioxo-1,2-dihydroquinazolin-3(4H)-yl)ethyl)piperidine-3-carboxylate]
18 | 96.8 to 97.7 |  |  | CCCn1c(=O)n(CCN2CC[C@H](c3ccc(F)cc3)[C@H](C(=O)OCC)C2)c(=O)c2ccccc21 (racemic) [Compound 6b, (±) syn-ethyl 1-(2-(2,4-dioxo-1-propyl-1,2-dihydroquinazolin-3(4H)-yl)ethyl)-4-(4-fluorophenyl)piperidine-3-carboxylate]
19 | 134.9 to 136.4 | > 7 | 270 ± 53 | CCOC(=O)[C@@H]1CN(CCn2c(=O)c3ccccc3n(Cc3ccccc3)c2=O)CC[C@@H]1c1ccc(F)cc1 (racemic) [Compound 6c, (±) syn-ethyl 1-(2-(1-benzyl-2,4-dioxo-1,2-dihydroquinazolin-3(4H)-yl)ethyl)-4-(4-fluorophenyl)piperidine-3-carboxylate]
20 | 198.8 to 201.4 | > 10 | 133 ± 20 | CCOC(=O)[C@@H]1CN(CCn2c(=O)[nH]c3sccc3c2=O)CC[C@@H]1c1ccc(F)cc1 (racemic) [Compound 7a, (±) syn-ethyl 1-(2-(2,4-dioxo-1,2-dihydrothieno[2,3-d]pyrimidin-3(4H)-yl)ethyl)-4-(4-fluorophenyl)piperidine-3-carboxylate]
